≈ marks a conversion by molar mass, not a printed value. Like-named read-outs stand apart in the source and are kept apart here.

Results on 2 compounds are retold here after PMC5400251, “Effect of quinoline based 1,2,3-triazole and its structural analogues on growth and virulence attributes of Candida albicans” (PLoS ONE, 2017).

The target of test [1] is T1, plasma membrane H+ ATPase (Candida albicans, UniProt P28877).
T1 construct: endogenous in cells; host or cells: C. albicans ATCC 90028; clinical isolates C. albicans D27 (FLC-susceptible) and D15.9 (FLC-resistant); mid-log phase whole cells
The test can be described thus: Proton extrusion measurement (H+ efflux). It counts as cell-based, C. albicans D27 (FLC-susceptible). On the procedure: The proton pumping activity of C. albicans was determined by monitoring acidification of external medium by measuring pH as describe earlier. In brief, the mid-log phase cells were harvested from SD medium by centrifugation at 3000 rpm for 15 min which is followed by three washings with phosphate buffer saline (PBS). A solution containing 0.1 M KCl and 0.1 mM CaCl2 in distilled water was prepared. Compounds 3a and 3b at the concentrations of 50 and 100 μg/mL were separately added in this solution. […] Initial pH was adjusted to 7.0 using 0.01 M HCl/NaOH. Approximately 0.2 g of cells were suspended in each set of solution. Suspension was kept in a double-jacketed glass container with constant stirring. Again, the pH of suspension was maintained as 7.0 for 1 min by using 0.01 N NaOH. The rate of H^+ extrusion was then monitored and calculated from the volume of 0.01 N NaOH consumed per min per mg weight of cells. Glucose has been reported as the stimulator of proton extrusion pump. Therefore above experiment was also repeated in the presence of 5 mM of glucose.

For test [2], the target named is T1, plasma membrane H+ ATPase. As to the kind of experiment: Measurement of intracellular pH (pHi). Particulars: 100 μg/mL; untreated 6.4. It is filed as cell-based, C. albicans D15.9 (FLC-resistant). The procedure:
(§1) In yeast cells, plasma membrane H^+-ATPase helps to maintain internal pH between 6.0 and 7.5. Intracellular pH (pHi) was measured as reported earlier by Manzoor et al.. Mid-log phase cells were harvested from SD medium and washed thrice with PBS. Subsequently, cells (0.1 g) were suspended in 5 mL solution of 0.1 M KCl, and 0.1 mM CaCl2 in distilled water. Compounds 3a and 3b were added to the suspension at a desired concentration of 100 μg/mL. […] Initial pH of the suspension was adjusted to 7.0 in each case and incubated for 30 min at 37°C with constant stirring. After incubation, the pH of suspension was again adjusted to 7.0 followed by the addition of nystatin (20 μM) and incubation at 37°C for 1 h. The change in pH of the suspension was monitored on a pH meter with constant stirring. The value of external pH at which nystatin permeabilization induced no further shift was taken as an estimate of pHi.

The subject of test [3] is proteinase secretion. The test can be described thus: Proteinase assay (BSA agar, Pz value). It counts as cell-based, C. albicans D15.9 (FLC-resistant). Particulars: for Decrease of proteinase secretion: at MIC, 1 h exposure. The procedure: (§2) Following incubation, 1.5 mL of the yeast culture was taken into micro centrifuge tubes and centrifuged at 3000 rpm, for 5 min. The pellet obtained was washed by phosphate buffer saline (PBS) twice to remove the residual medium. […] Volumes of 1μL were placed at equidistant points on proteinase agar medium (0.1% yeast nitrogen base w/o amino acids; 0.145% ammonium sulfate; 2% glucose with 0.2% (w/v) BSA fraction V mixed into agar at ∼40°C) and incubated at 37°C for 3 days. The experiment was performed in duplicate. Secreted proteinase enzyme will degrade BSA and form zone of clearance around the yeast colonies. An index (Pz value) was used to represent the extent of proteinase activity by different strains of C. albicans. A Pz value of 1.0 depicts no enzyme activity. It was calculated as follows: Pzvalue=diameterofcolony/diameterofcolony+diameterofzoneofdegradation

For test [4], the system named is proteinase secretion. The test can be described thus: Proteinase assay (BSA agar, Pz value). It counts as cell-based, C. albicans ATCC 90028. Particulars: at MIC, 1 h exposure. On the procedure: as §2
The target in test [5] is T1, plasma membrane H+ ATPase. The test can be described thus: Measurement of intracellular pH (pHi). It is filed as cell-based, C. albicans D27 (FLC-susceptible). Particulars: 100 μg/mL; untreated 6.6. The procedure:
as §1

Another test has as its system C. albicans ATCC 90028. As to the kind of experiment: Broth dilution IC50 determination. It is filed as cell-based. Particulars: Candida albicans, ATCC90028, SD broth, 37°C, 24 h, OD 600 nm, read-out: Anti-Candida Activity (IC50± S.D.) C. albicans ATCC90028. The procedure: (§3) Broth dilution technique was employed to determine the IC50 values of all the synthesized 1,2,3 triazole derivatives (3a-c) against C. albicans ATCC 90028, C. glabrata ATCC 90030, C. tropicalis ATCC 750 and four clinical isolates of C. albicans namely D27, D31, D39 (FLC-sensitive) and D15.9 (FLC-resistant). The strains were maintained on yeast extract:peptone:dextrose ([…]) nutrient agar (2.5%) slants at 4°C. The test compounds were dissolved in DMSO with less than 4% concentration of it in the final test volume. Different concentrations (1000… 7.8 μg/mL) of test compounds in Sabouraud dextrose (SD) broth medium were dispensed into the wells, then inoculated with the test organism with approx. 2.5 × 10^3 cells/mL and incubated at 37°C for 24 h. After incubation period, the optical density was measured at 600 nm by using Thermo Scientific Multiskan Go plate reader. […] All the experiments were done in triplicate at separate times.
In general terms: In broth dilution the organism is exposed to a series of concentrations in liquid medium.

The subject of test [6] is C. albicans D15.9 (FLC-resistant clinical isolate). As to the kind of experiment: Broth dilution IC50 / MIC determination. It counts as cell-based. Particulars: Candida albicans; for IC50: 24 h, read-out: Anti-Candida Activity (IC50± S.D.) C. albicans D15.9. On the procedure:
as §3

For test [7], the target named is T1, plasma membrane H+ ATPase. The test can be described thus: Measurement of intracellular pH (pHi). It is filed as cell-based, C. albicans ATCC 90028. Particulars: 100 μg/mL; untreated 6.3. On the procedure: as §1
For another test, the system named is phospholipase secretion. The test can be described thus: Phospholipase assay (egg yolk agar, Pz value). It is filed as cell-based, C. albicans D27 (FLC-susceptible). On the procedure: Phospholipase activity was performed using the method of Price et al. (1982) with minor modifications. The cells were incubated at 37°C for 18 h and then centrifuged at 3000 rpm for 5 min. The pellet obtained was washed with PBS twice to remove the residual culture medium. […] Volumes of 1 μL were placed at equidistant points on phospholipase agar media plates (1% peptone; 3% glucose; 5.73% NaCl; 0.055% CaCl2 with 10% (v/v) egg yolk emulsion) and incubated at 37°C for 4 days. The secretion of phospholipases was determined by the formation of opaque zones due to precipitation around the yeast colonies. The assay was conducted in duplicate. Pz values were calculated as follows: Pzvalue=diameterofcolony/diameterofcolony+diameterofzoneofprecipitaion

Where [8] appears, read: 50 μg/mL in presence of glucose (5 mM).
The mark [9] stands for this setting: 100 μg/mL in presence of glucose (5 mM).
The mark [10] stands for this setting: in the presence of glucose (5 mM), 100 μg/mL, read-out: Inhibition of H+ extrusion rate.
Setting [11] is: read-out: Inhibition of H+ extrusion.

T1 sequence (P28877 whole entry): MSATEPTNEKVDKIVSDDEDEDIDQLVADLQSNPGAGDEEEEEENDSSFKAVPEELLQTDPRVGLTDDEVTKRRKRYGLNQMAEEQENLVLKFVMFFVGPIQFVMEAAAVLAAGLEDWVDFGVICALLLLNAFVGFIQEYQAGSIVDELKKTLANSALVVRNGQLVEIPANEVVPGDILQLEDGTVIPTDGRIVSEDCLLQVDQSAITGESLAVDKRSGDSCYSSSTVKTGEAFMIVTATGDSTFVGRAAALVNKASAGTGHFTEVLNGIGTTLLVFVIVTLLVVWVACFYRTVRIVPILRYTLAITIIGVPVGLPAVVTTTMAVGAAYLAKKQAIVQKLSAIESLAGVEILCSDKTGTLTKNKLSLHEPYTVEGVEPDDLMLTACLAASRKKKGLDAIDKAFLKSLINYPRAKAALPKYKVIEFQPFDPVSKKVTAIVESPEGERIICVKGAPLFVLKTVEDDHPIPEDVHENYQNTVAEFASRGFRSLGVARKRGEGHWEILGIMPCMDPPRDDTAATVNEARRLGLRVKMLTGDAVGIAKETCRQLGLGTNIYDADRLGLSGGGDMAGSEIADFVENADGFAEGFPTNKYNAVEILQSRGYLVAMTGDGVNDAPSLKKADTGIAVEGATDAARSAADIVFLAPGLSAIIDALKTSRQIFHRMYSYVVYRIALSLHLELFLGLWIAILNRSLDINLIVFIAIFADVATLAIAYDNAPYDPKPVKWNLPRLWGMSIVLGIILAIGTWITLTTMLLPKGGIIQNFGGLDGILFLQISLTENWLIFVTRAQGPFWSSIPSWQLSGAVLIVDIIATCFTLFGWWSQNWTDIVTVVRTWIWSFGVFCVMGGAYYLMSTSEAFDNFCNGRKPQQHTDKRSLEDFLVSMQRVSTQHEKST

Take `Clc1ccc(OCc2cn(Cc3ccccc3)nn2)c2ncccc12` [Compound 3b, 8-((1-Benzyl-1H-1,2,3-triazol-4-yl)methoxy)-5-chloroquinoline]: the “Range of relative H+ efflux rate” value in test [1] (setting [8]) is reported as 22.30 ± 1.1 ×10^−6 mol min^−1 mg cells^−1; in test [1] (50 μg/mL, no glucose), 17.60 ± 0.8 ×10^−6 mol min^−1 mg cells^−1; in test [1] (setting [9]), 19.30 ± 0.9 ×10^−6 mol min^−1 mg cells^−1; in test [1] (100 μg/mL, no glucose), 16.00 ± 0.8 ×10^−6 mol min^−1 mg cells^−1. Moreover, the inhibition – broadly, how much of the control response was suppressed – at 100 µg/mL in [1] (setting [10]) was 52%; in test [1] (setting [11]), 65%. In addition, the “Intracellular pH (pHi)” value in test [2] amounted to 4.7; in [5], 5.1; in test [7], 4.7. Further, the “Decrease of proteinase secretion” value came out at 23.5% in the test with proteinase secretion [3] and 14% with proteinase secretion [4]. Moreover, the values for the IC50 (in the test with C. albicans ATCC 90028; in [6]) were 25.4 ± 0.76 µg/mL (≈ 72.4 µM) and 32.8 ± 1.25 µg/mL (≈ 93.5 µM), respectively. Also, the MIC – broadly, the lowest concentration found to suppress growth – in test [6] amounted to 250 µg/mL (≈ 713 µM). Further, the “Decrease of phospholipase secretion” value with phospholipase secretion (at MIC, 1 h exposure) stood at 46%; with phospholipase secretion (at MIC/4, 1 h exposure), 34%.
`c1ccc(Cn2cc(COc3cccc4cccnc34)nn2)cc1` [Compound 3a]: the “Range of relative H+ efflux rate” value in [1] (setting [8]) is reported as 21.60 ± 1.0 ×10^−6 mol min^−1 mg cells^−1; in [1] (50 μg/mL, no glucose), 20.00 ± 1.0 ×10^−6 mol min^−1 mg cells^−1; in test [1] (setting [9]) it was 19.30 ± 0.9 ×10^−6 mol min^−1 mg cells^−1; in test [1] (100 μg/mL, no glucose) it was 16.60 ± 0.8 ×10^−6 mol min^−1 mg cells^−1. For the same compound, the inhibition at 100 µg/mL in test [1] (setting [10]) worked out at 52%; in [1] (setting [11]) it was 45%. The “Intracellular pH (pHi)” value in test [2] turned out to be 5.4; in [5], 5.2; in [7], 5.2. In addition, in the test on proteinase secretion [3] (Fig 4 legend), the “Decrease of proteinase secretion (fold)” value is listed as “two fold”. The “Decrease of proteinase secretion” value in the test with proteinase secretion [3] is recorded as 45%; with proteinase secretion [4] it was 21%. The IC50 (usually the concentration that gives 50% inhibition) in the test with C. albicans ATCC 90028 was found to be 0.044 ± 0.11 µg/mL (≈ 0.139 µM); in test [6], 2.3 ± 0.05 µg/mL (≈ 7.27 µM). For the same compound, the MIC in test [6] amounted to 25 µg/mL (≈ 79 µM). Moreover, the “Decrease of phospholipase secretion” value in the test on phospholipase secretion (at MIC, 1 h exposure) is given as 42%; with phospholipase secretion (at MIC/4, 1 h exposure), 25%.
